Laboratory results: ChEMBL document CHEMBL4145445, “Design, synthesis and biological assessment of new thiazolylhydrazine derivatives as selective and reversible hMAO-A inhibitors” (Eur J Med Chem, 2018)
Each block holds one compound with its values, some of them ahead of it.

Tests used:
[1] = molecular target: T1, Amine oxidase [flavin-containing] A (Homo sapiens, UniProt P21397); assay: Inhibition of human MAO-A using tyramine hydrochloride as substrate after 30 mins by Amplex Red reagent based horseradish peroxidase enzyme-coupled fluorescence assay
T1 sequence (P21397 whole entry): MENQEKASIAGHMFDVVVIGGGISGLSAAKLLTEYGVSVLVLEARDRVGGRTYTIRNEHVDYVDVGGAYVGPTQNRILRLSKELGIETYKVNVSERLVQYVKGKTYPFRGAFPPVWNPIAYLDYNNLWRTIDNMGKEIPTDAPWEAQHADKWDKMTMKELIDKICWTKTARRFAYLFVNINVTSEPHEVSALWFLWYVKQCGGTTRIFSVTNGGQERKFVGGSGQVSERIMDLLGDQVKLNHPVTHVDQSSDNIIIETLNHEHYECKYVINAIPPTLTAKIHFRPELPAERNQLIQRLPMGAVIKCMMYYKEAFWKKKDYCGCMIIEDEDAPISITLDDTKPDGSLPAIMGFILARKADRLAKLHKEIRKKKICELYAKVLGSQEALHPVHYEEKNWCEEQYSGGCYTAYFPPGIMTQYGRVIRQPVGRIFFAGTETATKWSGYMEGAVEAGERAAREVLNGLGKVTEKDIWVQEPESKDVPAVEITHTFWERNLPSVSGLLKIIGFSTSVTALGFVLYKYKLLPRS

[2] = molecular target: T1, Amine oxidase [flavin-containing] A; assay: Inhibition of human MAO-A at 10^-4 to 10^-3 M using tyramine hydrochloride as substrate after 30 mins by Amplex Red reagent based horseradish peroxidase enzyme-coupled fluorescence assay relative to control; settings: 0.5 h
[3] = molecular target: T2, Amine oxidase [flavin-containing] B (Homo sapiens, UniProt P27338); assay: Inhibition of human MAO-B at 10^-4 to 10^-3 M using tyramine hydrochloride as substrate after 30 mins by Amplex Red reagent based horseradish peroxidase enzyme-coupled fluorescence assay relative to control; settings: 0.5 h
T2 sequence (P27338 whole entry): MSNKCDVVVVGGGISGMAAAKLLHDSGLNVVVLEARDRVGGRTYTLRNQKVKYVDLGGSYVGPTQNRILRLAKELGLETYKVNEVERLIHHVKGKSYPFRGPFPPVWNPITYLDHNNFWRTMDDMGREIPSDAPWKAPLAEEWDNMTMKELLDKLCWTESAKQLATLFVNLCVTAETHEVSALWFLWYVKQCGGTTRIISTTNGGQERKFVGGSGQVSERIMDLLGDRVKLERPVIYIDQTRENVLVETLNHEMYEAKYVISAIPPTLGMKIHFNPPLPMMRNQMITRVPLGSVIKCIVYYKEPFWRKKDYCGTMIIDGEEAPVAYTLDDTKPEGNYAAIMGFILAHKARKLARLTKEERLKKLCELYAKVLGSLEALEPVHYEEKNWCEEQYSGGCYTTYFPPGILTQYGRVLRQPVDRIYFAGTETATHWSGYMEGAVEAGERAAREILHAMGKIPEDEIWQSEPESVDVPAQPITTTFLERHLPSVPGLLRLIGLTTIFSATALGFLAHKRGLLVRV

[4] = molecular target: T2, Amine oxidase [flavin-containing] B; assay: Inhibition of human MAO-B using tyramine hydrochloride as substrate after 30 mins by Amplex Red reagent based horseradish peroxidase enzyme-coupled fluorescence assay
Homo sapiens = species on record: Homo sapiens; assay: Selectivity index, ratio of IC50 for human MAO-B to IC50 for human MAO-A
Salmonella typhimurium [5] = assay: Genotoxicity in Salmonella typhimurium TA98 assessed as increase in revertant colonies at 1.25 mg/ml in presence of Sprague-Dawley rat liver S9 fraction by Ames test relative to basal level; format: toxicity, organism-based; settings: salmonella enterica subsp. enterica serovar typhimurium
Salmonella typhimurium [6] = assay: Genotoxicity in Salmonella typhimurium TA98 assessed as increase in revertant colonies at 0.3125 mg/ml in absence of Sprague-Dawley rat liver S9 fraction by Ames test relative to basal level; format: toxicity, organism-based; settings: salmonella enterica subsp. enterica serovar typhimurium
Salmonella typhimurium [7] = assay: Genotoxicity in Salmonella typhimurium TA98 assessed as increase in revertant colonies at 0.156 mg/ml in presence of Sprague-Dawley rat liver S9 fraction by Ames test relative to basal level; format: toxicity, organism-based; settings: salmonella enterica subsp. enterica serovar typhimurium
Salmonella typhimurium [8] = assay: Genotoxicity in Salmonella typhimurium TA98 assessed as increase in revertant colonies at 0.625 mg/ml in absence of Sprague-Dawley rat liver S9 fraction by Ames test relative to basal level; format: toxicity, organism-based; settings: salmonella enterica subsp. enterica serovar typhimurium
Salmonella typhimurium [9] = assay: Genotoxicity in Salmonella typhimurium TA100 assessed as increase in revertant colonies at 0.625 mg/ml in presence of Sprague-Dawley rat liver S9 fraction by Ames test relative to basal level; format: toxicity, organism-based; settings: salmonella enterica subsp. enterica serovar typhimurium
Salmonella typhimurium [10] = assay: Genotoxicity in Salmonella typhimurium TA100 assessed as increase in revertant colonies at 1.25 mg/ml in absence of Sprague-Dawley rat liver S9 fraction by Ames test relative to basal level; format: toxicity, organism-based; settings: salmonella enterica subsp. enterica serovar typhimurium
Salmonella typhimurium [11] = assay: Genotoxicity in Salmonella typhimurium TA98 assessed as increase in revertant colonies at 0.625 mg/ml in presence of Sprague-Dawley rat liver S9 fraction by Ames test relative to basal level; format: toxicity, organism-based; settings: salmonella enterica subsp. enterica serovar typhimurium
[12] = molecular target: T1, Amine oxidase [flavin-containing] A; assay: Reversible-competitive inhibition of human MAO-A using varying levels of tyramine as substrate after 30 mins by Lineweaver-Burk plot
Salmonella typhimurium [13] = assay: Genotoxicity in Salmonella typhimurium TA100 assessed as increase in revertant colonies at 0.156 mg/ml in presence of Sprague-Dawley rat liver S9 fraction by Ames test relative to basal level; format: toxicity, organism-based; settings: salmonella enterica subsp. enterica serovar typhimurium
Salmonella typhimurium [14] = assay: Genotoxicity in Salmonella typhimurium TA98 assessed as increase in revertant colonies at 2.5 mg/ml in presence of Sprague-Dawley rat liver S9 fraction by Ames test relative to basal level; format: toxicity, organism-based; settings: salmonella enterica subsp. enterica serovar typhimurium
Salmonella typhimurium [15] = assay: Genotoxicity in Salmonella typhimurium TA98 assessed as increase in revertant colonies at 5 mg/ml in presence of Sprague-Dawley rat liver S9 fraction by Ames test relative to basal level; format: toxicity, organism-based; settings: salmonella enterica subsp. enterica serovar typhimurium
Salmonella typhimurium [16] = assay: Genotoxicity in Salmonella typhimurium TA98 assessed as increase in revertant colonies at 5 mg/ml in absence of Sprague-Dawley rat liver S9 fraction by Ames test relative to basal level; format: toxicity, organism-based; settings: salmonella enterica subsp. enterica serovar typhimurium
Salmonella typhimurium [17] = assay: Genotoxicity in Salmonella typhimurium TA98 assessed as increase in revertant colonies at 0.156 mg/ml in absence of Sprague-Dawley rat liver S9 fraction by Ames test relative to basal level; format: toxicity, organism-based; settings: salmonella enterica subsp. enterica serovar typhimurium
Salmonella typhimurium [18] = assay: Genotoxicity in Salmonella typhimurium TA100 assessed as increase in revertant colonies at 5 mg/ml in presence of Sprague-Dawley rat liver S9 fraction by Ames test relative to basal level; format: toxicity, organism-based; settings: salmonella enterica subsp. enterica serovar typhimurium
Salmonella typhimurium [19] = assay: Genotoxicity in Salmonella typhimurium TA98 assessed as increase in revertant colonies at 1.25 mg/ml in absence of Sprague-Dawley rat liver S9 fraction by Ames test relative to basal level; format: toxicity, organism-based; settings: salmonella enterica subsp. enterica serovar typhimurium
Salmonella typhimurium [20] = assay: Genotoxicity in Salmonella typhimurium TA100 assessed as increase in revertant colonies at 0.3125 mg/ml in absence of Sprague-Dawley rat liver S9 fraction by Ames test relative to basal level; format: toxicity, organism-based; settings: salmonella enterica subsp. enterica serovar typhimurium
Salmonella typhimurium [21] = assay: Genotoxicity in Salmonella typhimurium TA100 assessed as increase in revertant colonies at 0.625 mg/ml in absence of Sprague-Dawley rat liver S9 fraction by Ames test relative to basal level; format: toxicity, organism-based; settings: salmonella enterica subsp. enterica serovar typhimurium
Salmonella typhimurium [22] = assay: Genotoxicity in Salmonella typhimurium TA100 assessed as increase in revertant colonies at 5 mg/ml in absence of Sprague-Dawley rat liver S9 fraction by Ames test relative to basal level; format: toxicity, organism-based; settings: salmonella enterica subsp. enterica serovar typhimurium
Salmonella typhimurium [23] = assay: Genotoxicity in Salmonella typhimurium TA98 assessed as increase in revertant colonies at 2.5 mg/ml in absence of Sprague-Dawley rat liver S9 fraction by Ames test relative to basal level; format: toxicity, organism-based; settings: salmonella enterica subsp. enterica serovar typhimurium
Salmonella typhimurium [24] = assay: Genotoxicity in Salmonella typhimurium TA100 assessed as increase in revertant colonies at 0.3125 mg/ml in presence of Sprague-Dawley rat liver S9 fraction by Ames test relative to basal level; format: toxicity, organism-based; settings: salmonella enterica subsp. enterica serovar typhimurium
NIH3T3 = assay: Cytotoxicity against mouse NIH/3T3 cells by MTT assay; format: cell-based
Salmonella typhimurium [25] = assay: Genotoxicity in Salmonella typhimurium TA100 assessed as increase in revertant colonies at 2.5 mg/ml in presence of Sprague-Dawley rat liver S9 fraction by Ames test relative to basal level; format: toxicity, organism-based; settings: salmonella enterica subsp. enterica serovar typhimurium
Salmonella typhimurium [26] = assay: Genotoxicity in Salmonella typhimurium TA100 assessed as increase in revertant colonies at 1.25 mg/ml in presence of Sprague-Dawley rat liver S9 fraction by Ames test relative to basal level; format: toxicity, organism-based; settings: salmonella enterica subsp. enterica serovar typhimurium
Salmonella typhimurium [27] = assay: Genotoxicity in Salmonella typhimurium TA98 assessed as increase in revertant colonies at 0.3125 mg/ml in presence of Sprague-Dawley rat liver S9 fraction by Ames test relative to basal level; format: toxicity, organism-based; settings: salmonella enterica subsp. enterica serovar typhimurium
Salmonella typhimurium [28] = assay: Genotoxicity in Salmonella typhimurium TA100 assessed as increase in revertant colonies at 2.5 mg/ml in absence of Sprague-Dawley rat liver S9 fraction by Ames test relative to basal level; format: toxicity, organism-based; settings: salmonella enterica subsp. enterica serovar typhimurium
Salmonella typhimurium [29] = assay: Genotoxicity in Salmonella typhimurium TA100 assessed as increase in revertant colonies at 0.156 mg/ml in absence of Sprague-Dawley rat liver S9 fraction by Ames test relative to basal level; format: toxicity, organism-based; settings: salmonella enterica subsp. enterica serovar typhimurium

SMILES: Brc1ccc(-c2csc(N/N=C/c3ccc(N4CCOCC4)cc3)n2)cc1
IC50 [1]: 14.6 µM
inhibition (INH) [2]: > 50%
IC50 [4]: > 100 µM
Ratio IC50 (Homo sapiens): > 6.84

SMILES: Cc1ccc(-c2csc(N/N=C/c3ccc(N4CCCC4)cc3)n2)cc1
IC50 [1]: 20 µM
inhibition (INH) [2]: > 50%
IC50 [4]: > 100 µM
Ratio IC50 (Homo sapiens): > 4.99

SMILES: Clc1ccc(-c2csc(N/N=C/c3ccc(N4CCCC4)cc3)n2)cc1
IC50 [1]: 45.1 µM
inhibition (INH) [2]: > 50%
inhibition (INH) [3]: > 50%
IC50 [4]: 761 µM
Ratio IC50 (Homo sapiens): 16.9

SMILES: Clc1ccc(-c2csc(N/N=C/c3ccc(N4CCOCC4)cc3)n2)cc1
IC50 [1]: 10.6 µM
inhibition (INH) [2]: > 50%
inhibition (INH) [3]: > 50%
IC50 [4]: 558 µM
Ratio IC50 (Homo sapiens): 52.8

Further compounds by falling IC50 [1], results first:

IC50 [1]: 103 µM
inhibition (INH) [2]: > 50%
inhibition (INH) [3]: > 50%
IC50 [4]: 131 µM
Ratio IC50 (Homo sapiens): 1.26
SMILES: Clc1ccc(-c2csc(N/N=C/c3ccc(N4CCCC4)cc3)n2)c(Cl)c1

IC50 [1]: 85.4 µM
inhibition (INH) [2]: > 50%
inhibition (INH) [3]: > 50%
IC50 [4]: 133 µM
Ratio IC50 (Homo sapiens): 1.56
SMILES: Clc1ccc(-c2csc(N/N=C/c3ccc(N4CCOCC4)cc3)n2)c(Cl)c1

IC50 [1]: 15.6 µM
inhibition (INH) [2]: > 50%
inhibition (INH) [3]: > 50%
IC50 [4]: 141 µM
Ratio IC50 (Homo sapiens): 9.03
SMILES: Fc1ccc(-c2csc(N/N=C/c3ccc(N4CCCC4)cc3)n2)c(F)c1

IC50 [1]: 0.011 µM
inhibition (INH) [2]: > 50%
inhibition (INH) [3]: > 50%
Ki [12]: 0.0044 µM
IC50 [4]: 17.6 µM
Ratio IC50 (Homo sapiens): 1600
SMILES: Fc1ccc(-c2csc(N/N=C/c3ccc(N4CCOCC4)cc3)n2)c(F)c1
fold change (FC) (Salmonella typhimurium [5]): 2.5
fold change (FC) (Salmonella typhimurium [6]): 0.59
fold change (FC) (Salmonella typhimurium [7]): 1.34
fold change (FC) (Salmonella typhimurium [8]): 0.5
fold change (FC) (Salmonella typhimurium [9]): 1.4
fold change (FC) (Salmonella typhimurium [10]): 0.45
fold change (FC) (Salmonella typhimurium [11]): 1.34
fold change (FC) (Salmonella typhimurium [13]): 1.08
fold change (FC) (Salmonella typhimurium [14]): 0.45
fold change (FC) (Salmonella typhimurium [15]): 0.36
fold change (FC) (Salmonella typhimurium [16]): 0.64
fold change (FC) (Salmonella typhimurium [17]): 0.5
fold change (FC) (Salmonella typhimurium [18]): 1.08
fold change (FC) (Salmonella typhimurium [19]): 0.5
fold change (FC) (Salmonella typhimurium [20]): 1
fold change (FC) (Salmonella typhimurium [21]): 0.61
fold change (FC) (Salmonella typhimurium [22]): 0.33
fold change (FC) (Salmonella typhimurium [23]): 0.3
fold change (FC) (Salmonella typhimurium [24]): 1.4
IC50 (NIH3T3): > 1000 µM
fold change (FC) (Salmonella typhimurium [25]): 1.14
fold change (FC) (Salmonella typhimurium [26]): 1.59
fold change (FC) (Salmonella typhimurium [27]): 1.07
fold change (FC) (Salmonella typhimurium [28]): 0.22
fold change (FC) (Salmonella typhimurium [29]): 0.61
